Data published in ChEMBL document CHEMBL2157992, “SAR studies of epoxycurcuphenol derivatives on leukemia CT-CD4 cells” (2012).

Legend:
Type in all cases: functional
[1] = test system: Jurkat; experiment: Antiproliferative activity against human Jurkat cells assessed as proliferation index at 10 uM after 24 hrs using CFSE staining by flow cytometry relative to original parent cells (reference value: 2.48)
[2] = test system: Jurkat; experiment: Antiproliferative activity against human Jurkat cells assessed as non proliferative fraction at 10 uM after 24 hrs using CFSE staining by flow cytometry (reference value: 0.59)
[3] = test system: Jurkat; experiment: Antiproliferative activity against human Jurkat cells assessed as parent population at 10 uM after 24 hrs using CFSE staining by flow cytometry (reference value: 23.70 %)
[4] = test system: Jurkat; experiment: Antiproliferative activity against human Jurkat cells assessed as 2nd generation cell population at 10 uM after 24 hrs using CFSE staining by flow cytometry relative to control
[5] = test system: Jurkat; experiment: Antiproliferative activity against human Jurkat cells assessed as proliferation index of >/= 3rd generation cells at 10 uM after 24 hrs using CFSE staining by flow cytometry relative to original parent cells
[6] = test system: Jurkat; experiment: Antiproliferative activity against human Jurkat cells assessed as 5th generation cell population at 10 uM after 24 hrs using CFSE staining by flow cytometry (reference value: 18.43 %)
[7] = test system: Jurkat; experiment: Antiproliferative activity against human Jurkat cells assessed as 4th generation cell population at 10 uM after 24 hrs using CFSE staining by flow cytometry (reference value: 25. 99 %)
[8] = test system: Jurkat; experiment: Inhibition of cell division in human Jurkat cells at 1 uM
[9] = test system: Jurkat; experiment: Antiproliferative activity against human Jurkat cells assessed as 3rd generation cell population at 10 uM after 24 hrs using CFSE staining by flow cytometry relative to control

SMILES | Ratio [1] | Ratio [2] | Activity [3] [%] | Activity [4] [%] | Ratio [5] | Activity [6] [%] | Activity [7] [%] | inhibition at 1 µM [8] [%] | Activity [9] [%]
CC1(C)OC1CCCc1cc(O)ccc1O (stereo unspecified) | 1.11 | 0.94 | 84.84 | 7.31 | 4.76 |  |  |  | 
C[C@@H](CC[C@H]1OC1(C)C)c1cc(O)ccc1O (relative stereo) | 6.47 | 0.39 | 6.02 |  | 10.81 | 64.37 |  |  | 
Cc1ccc([C@@H](C)CC[C@H]2OC2(C)C)c(O)c1 (relative stereo) | 4.77 | 0.41 | 8.71 |  | 9.67 | 38.84 |  |  | 
Cc1ccc([C@H](C)CC[C@H]2OC2(C)C)c(O)c1 (relative stereo) | 5.2 | 0.42 | 8.09 |  | 10.46 | 49.3 |  |  | 
CC[C@@H](CC[C@H]1OC1(C)C)c1ccccc1O (relative stereo) | 4.1 | 0.48 | 11.75 |  | 8.5 | 29.37 |  |  | 
CC[C@H](CC[C@H]1OC1(C)C)c1ccccc1O (relative stereo) | 4.38 | 0.46 | 10.46 |  | 9.29 | 33.67 |  |  | 
Cc1ccc([C@H](C)CC[C@@H]2CO2)c(O)c1 (relative stereo) | 5.86 | 0.37 | 6.23 |  | 10.07 | 47.87 |  |  | 
Cc1ccc([C@@H](C)CC[C@@H]2CO2)c(O)c1 (relative stereo) | 5.71 | 0.3 | 5.27 |  | 9.25 | 40.06 |  |  | 
CC[C@@H](CC[C@@H]1CO1)c1cc(O)ccc1O (relative stereo) | 5.06 | 0.4 | 7.95 |  | 10.11 | 48.54 |  |  | 
CC[C@H](CC[C@@H]1CO1)c1cc(O)ccc1O (relative stereo) | 5.01 | 0.42 | 8.46 |  | 10.24 | 47.67 |  |  | 
CC[C@H](CC[C@@H](C)O)c1ccccc1O (relative stereo) | 6.11 | 0.32 | 5.19 |  | 10.18 | 46.79 |  |  | 
Cc1cc(O)c([C@H](C)CC[C@H]2OC2(C)C)cc1O (relative stereo) | 1.62 | 0.87 | 53.81 |  | 8.05 |  | 13.9 | 100 | 
Cc1cc(O)c([C@@H](C)CC[C@H]2OC2(C)C)cc1O (relative stereo) | 1.36 | 0.92 | 67.44 |  | 6.14 |  |  | 100 | 17.04
CC[C@H](CC[C@H]1OC1(C)C)c1cc(O)ccc1O (relative stereo) | 2.73 | 0.59 | 21.49 |  | 6.16 | 11.8 | 13.9 |  | 35.78
CC[C@@H](CC[C@H]1OC1(C)C)c1cc(O)ccc1O (relative stereo) | 3.04 | 0.62 | 20.3 |  | 7.93 | 18.48 | 20.47 |  | 21.3
Cc1cc(O)c([C@H](C)CC[C@@H]2CO2)cc1O (relative stereo) | 1.85 | 0.86 | 46.39 |  | 7.64 | 18.91 |  |  | 
Cc1cc(O)c([C@@H](C)CC[C@@H]2CO2)cc1O (relative stereo) | 1.09 | 0.98 | 89.59 |  | 5.7 |  |  |  | 6.73
